Measured values as given in patent US20220090124A1, “HUMANIZED VIPR2 COPY NUMBER VARIANT TRANSGENIC MOUSE MODEL FOR ANTIPSYCHOTIC DRUG AND GENE THERAPY DISCOVERY FOR SCHIZOPHRENIA” (Board of Supervisors of Louisiana State University and …, priority 2019, published 2022).

What was measured:
human VPAC2 receptor = molecular target: T1, human VPAC2 receptor (Homo sapiens, UniProt P41587); details: high-throughput screen of 1.67 million-compound collection, cell-based cAMP assay; cited from earlier work
T1 sequence (P41587 24-438): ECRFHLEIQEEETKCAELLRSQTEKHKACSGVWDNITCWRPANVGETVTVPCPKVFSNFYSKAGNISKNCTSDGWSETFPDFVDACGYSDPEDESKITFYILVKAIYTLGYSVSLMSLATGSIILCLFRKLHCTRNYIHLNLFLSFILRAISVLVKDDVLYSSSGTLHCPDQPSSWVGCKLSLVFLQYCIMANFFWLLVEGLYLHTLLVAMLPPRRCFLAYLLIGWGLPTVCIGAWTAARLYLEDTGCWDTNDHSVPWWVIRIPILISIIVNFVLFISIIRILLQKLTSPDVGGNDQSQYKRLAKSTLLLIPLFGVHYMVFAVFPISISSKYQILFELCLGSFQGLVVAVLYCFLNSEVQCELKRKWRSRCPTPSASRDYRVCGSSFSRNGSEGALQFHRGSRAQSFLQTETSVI

human VIPR2 receptor = molecular target: T2, human VIPR2 receptor (Homo sapiens, UniProt P41587); test: receptor block and downstream signaling in cell line expressing the human VIPR2 receptor; assay type: cell-based; details: cell line expressing the human VIPR2 receptor (cell line of VIPR2 CNV)
T2 construct: expressed in transfected cells; host or cells: cell line of VPIR2 CNV (not further described)
T2 sequence (P41587 24-438): T1 sequence (P41587 24-438)
Text: Turning finally to FIG. 57, a small molecule VIPR2 antagonist, (2R,4S)-2-benzyl-4-hydroxy-N-((1S,2R)-2-hydroxy-2,3-dihydro-1H-inden-1-yl)-5-(4-nitrophenylsulfonamido) pentanamide, is shown. Another object of the present invention is to use the VIRP2 BAC Schizophrenia mouse model to identify VIPR2 receptor antagonist as an antipsychotic drug targeting cognitive and social deficits, or as disease-modifying therapy to prevent or slow/stop disease progression. Currently, the majority of VIPR2 agonist or antagonist are peptides. However, two properties of the peptide hormone are problematic from the perspective of therapeutic applications. First, they have a short half-life as a result of its rapid proteolysis. Second, most of these peptides are not specific and activate three broadly distributed receptors, VIPR1, VIPR2, and PAC1. A high-throughput screen on human VPAC2 receptor using a cell-based cAMP assay has identified a single confirmed antagonist hit from a 1.67 million-compound collection. This compound is the first specific small molecule antagonist for human VIPR2 receptor. The full name of the compound is (2R,4S)-2-benzyl-4-hydroxy-N-((1S,2R)-2-hydroxy-2,3-dihydro-1H-inden-1-yl)-5-(4-nitrophenylsulfonamido) pentanamide (FIG. 57). […] The inventors experimented with this hVIPR2 antagonist in the cell line of VPIR2 CNV. […]

hPAC1 = molecular target: T3, hPAC1 (Homo sapiens, UniProt P41586); details: selectivity; cited from earlier work
T3 sequence (P41586 21-468): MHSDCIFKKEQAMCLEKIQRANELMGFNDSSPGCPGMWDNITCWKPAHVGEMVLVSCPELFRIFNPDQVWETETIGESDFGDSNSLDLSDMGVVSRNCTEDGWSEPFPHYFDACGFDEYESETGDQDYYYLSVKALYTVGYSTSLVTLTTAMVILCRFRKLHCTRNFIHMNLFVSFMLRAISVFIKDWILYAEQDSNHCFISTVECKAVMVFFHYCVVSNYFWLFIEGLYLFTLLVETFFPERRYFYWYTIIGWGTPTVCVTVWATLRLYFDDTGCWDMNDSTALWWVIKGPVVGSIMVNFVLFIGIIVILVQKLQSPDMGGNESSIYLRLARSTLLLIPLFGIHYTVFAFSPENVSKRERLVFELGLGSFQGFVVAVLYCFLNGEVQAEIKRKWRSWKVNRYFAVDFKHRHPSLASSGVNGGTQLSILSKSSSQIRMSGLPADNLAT

hVPAC1 = molecular target: T4, hVPAC1 (Homo sapiens, UniProt P32241); details: selectivity; cited from earlier work
T4 sequence (P32241 31-457): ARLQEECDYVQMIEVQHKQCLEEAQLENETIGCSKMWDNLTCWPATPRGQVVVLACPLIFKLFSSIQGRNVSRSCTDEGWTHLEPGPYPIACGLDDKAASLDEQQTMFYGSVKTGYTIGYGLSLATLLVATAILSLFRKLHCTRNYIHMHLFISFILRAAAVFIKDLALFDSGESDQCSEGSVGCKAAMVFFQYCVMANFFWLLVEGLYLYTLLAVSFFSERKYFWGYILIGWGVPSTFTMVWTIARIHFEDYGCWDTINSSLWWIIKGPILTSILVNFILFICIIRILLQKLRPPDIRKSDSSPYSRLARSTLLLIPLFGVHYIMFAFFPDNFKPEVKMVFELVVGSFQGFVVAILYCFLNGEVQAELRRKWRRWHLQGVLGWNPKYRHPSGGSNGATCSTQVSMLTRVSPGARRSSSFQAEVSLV

mouse Vipr2 receptor = molecular target: T5, mouse Vipr2 receptor (Mus musculus, UniProt P41588); details: species specificity; cited from earlier work
T5 sequence (P41588 23-437): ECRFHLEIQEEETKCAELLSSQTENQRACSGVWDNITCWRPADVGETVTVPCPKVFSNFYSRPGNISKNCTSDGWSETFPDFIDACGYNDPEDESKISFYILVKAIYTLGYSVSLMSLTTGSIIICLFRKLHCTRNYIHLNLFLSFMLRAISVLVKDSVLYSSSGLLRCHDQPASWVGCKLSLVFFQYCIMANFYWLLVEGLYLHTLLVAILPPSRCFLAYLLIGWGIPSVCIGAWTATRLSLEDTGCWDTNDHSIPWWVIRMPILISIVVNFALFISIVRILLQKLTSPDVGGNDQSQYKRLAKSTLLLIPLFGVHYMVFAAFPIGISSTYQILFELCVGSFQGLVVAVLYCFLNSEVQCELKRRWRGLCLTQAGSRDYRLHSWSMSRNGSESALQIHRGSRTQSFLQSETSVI

## O=C(N[C@H]1c2ccccc2C[C@H]1O)[C@H](Cc1ccccc1)C[C@H](O)CNS(=O)(=O)c1ccc([N+](=O)[O-])cc1 [(2R,4S)-2-benzyl-4-hydroxy-N-((1S,2R)-2-hydroxy-2,3-dihydro-1H-inden-1-yl)-5-(4-nitrophenylsulfonamido) pentanamide]
Human VPAC2 receptor
  antagonist activity on human VIPR2 receptor: selective human VIPR2 antagonist
Human VIPR2 receptor
  block of VIPR2 receptor and downstream signaling: blocks the VIPR2 receptor and the downstream signaling
hPAC1
  antagonism of hPAC1: does not antagonize
hVPAC1
  antagonism of hVPAC1: does not antagonize
Mouse Vipr2 receptor
  activity on the mouse Vipr2 receptor: completely lacks activity
